Patent US20100056570A1, “FUNGICIDES” (Syngenta Crop Protection, Inc., priority 2006, published 2010)

| Structure (SMILES) | melting point |
| --- | --- |
| CSC(Oc1cc2cc(I)cnc2cc1F)C(=O)NC(C)(C)C (stereo not drawn) [12 (7), 2-(3-iodo-7-fluoro-quinolin-6-yloxy)-N-tert-butyl-2-methylsulfanyl-acetamide] | 165 to 166 °C |
| COCC#CC(C)(C)NC(=O)C(C)(S)Oc1cc2cc(-c3ccsc3)cnc2cc1F (stereo not drawn) [251 (30), 2-(7-Fluoro-3-thiophen-3-yl-quinolin-6-yloxy)-N-(4-methoxy-1,1-dimethyl-but-2-ynyl)-2-methyl-sulfanyl-acetamide] | 132 to 134 °C |
| CSC(Oc1cc2cc(-c3ccsc3)cnc2cc1F)C(=O)NC(C)(C)C (stereo not drawn) [12 (30), N-tert-butyl-2-(7-fluoro-3-thiophen-3-yl-quinolin-6-yloxy)-2-methylsulfanyl-acetamide] | 170 to 173 °C |
| CSC(Oc1cc2cc(Br)cnc2cc1F)C(=O)NC(C)(C)C (stereo not drawn) [12 (6), 2-(3-Bromo-7-fluoro-quinolin-6-yloxy)-N-tert-butyl-2-methylsulfanyl-acetamide] | 144 to 145 °C |
| CSC(Oc1cc2cc(Br)cnc2cc1Cl)C(=O)NC(C)(C)C (stereo not drawn) [12 (2), 2-(3-Bromo-7-chloro-quinolin-6-yloxy)-N-tert-butyl-2-methylsulfanyl-acetamide] | 172 to 174 °C |
| CSC(Oc1cc2cc(Br)cnc2cc1C)C(=O)NC(C)(C)C (stereo not drawn) [12 (13), 2-(3-Bromo-7-methyl-quinolin-6-yloxy)-N-tert-butyl-2-methylsulfanyl-acetamide] | 132 to 134 °C |
